Reference: paper PMC10227015, “From a drug repositioning to a structure-based drug design approach to tackle acute lymphoblastic leukemia” (Nature Communications, 2023)
Like-named read-outs stand apart in the source and are kept apart here.

What was measured:
CCRF-CEM cell line = test: dCK cellular assay: CCRF-CEM proliferation in the presence of dT and dC; format: cell-based, human; details: Homo sapiens
Protocol: The dCK cellular assay was set up to assess the ability to inhibit dCK activity in a cellular model. The model was developed with a T-cell acute lymphoblastic leukemia cell line (CCRF-CEM), because of its high dependence on the SP, thus on dCK activity. Cellular assays were performed to assess the inhibition of cell proliferation under two conditions: (i) in the presence of the compound alone to determine the nonspecific effect on cells, independent of dCK (nonspecific toxicity) and (ii) in the presence of an inhibitor of the DNP to determine the ability of compounds to inhibit dCK and decrease tumor proliferation (activity on dCK). The inhibitor of the DNP chosen for the experiments was thymidine (dT), a physiological inhibitor of ribonucleotide reductase which arrests cell proliferation in phase S. The dTTP produced via thymidine kinase from dT acts as a RNR inhibitor by an allosteric regulation of the R1 subunit. The addition of the nucleoside deoxycytidine (dC) in the medium allows the rescue of cell proliferation by passing only through the salvage pathway, mediated by dCK. dC needs to be added exogenously to mimic physiological concentrations because it is not present in the cell culture medium, on the contrary to mouse model, in which it is naturally present in the serum. Therefore, cell proliferation under these conditions (+dT +dC) is dCK dependent and it is possible to determine the IC50 of dCK inhibitors on the inhibition of cell proliferation. Results are expressed as % cell proliferation relative to the control with DMSO.
The amount of reduced dye formed by metabolically active cells was quantified by its fluorescence measured at 560 nm (excitation) and 590 nm (emission) in a microplate reader (CLARIOstar, BMG Labtech). A blank well without cells was used as a background control. Each experiment was performed at least three times (with technical triplicates) and data are presented as the mean ± SD.

dCK-C3S-S74E [1] = test: Enzymatic assay (PK/LDH coupled), dC phosphorylation by dCK in the presence of UTP; format: biochemical, human; details: presence of UTP
Chain of dCK-C3S-S74E (P27707 whole entry S74E, form open): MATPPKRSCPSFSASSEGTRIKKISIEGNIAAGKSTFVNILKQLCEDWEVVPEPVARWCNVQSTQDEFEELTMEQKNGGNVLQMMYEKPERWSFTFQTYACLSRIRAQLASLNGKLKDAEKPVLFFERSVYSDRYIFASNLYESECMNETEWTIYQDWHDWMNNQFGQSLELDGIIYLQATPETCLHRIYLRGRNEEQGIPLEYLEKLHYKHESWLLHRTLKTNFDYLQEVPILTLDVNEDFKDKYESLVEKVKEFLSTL
Protocol: (§1) For enzymatic assays, cells were re-suspended in 20 mM TRIS, pH 8 500 mM NaCl, 0.1% BRIJ-35 and 5% glycerol buffer and one EDTA free anti-protease tablet was added (Roche). After sonication and centrifugation (30,000 × g), the supernatant was loaded on a 5 ml HisTrap FF column (GE healthcare) pre-equilibrated with 20 mM TRIS, pH 8, 500 mM NaCl, 0.01% BRIJ-35 and 5% glycerol buffer. The protein was then eluted by the same buffer containing 250 mM imidazole after a wash containing 25 mM imidazole. The eluted fraction was applied on a HiPrep 26/10 desalting column (GE healthcare) pre-equilibrated with 20 mM TRIS, pH 8, 500 mM NaCl, 5% glycerol and 0.01% BRIJ-35 buffer. Finally, protein in a 20% glycerol buffer was flash frozen in liquid nitrogen and stored at −80 °C.
Kinetic analyses were performed using a spectrophotometric continuous enzymatic-coupled assay using pyruvate kinase (PK) and lactate dehydrogenase (LDH). […] UTP is the physiological dCK-phosphate donor[46] and it was used to determine activation versus inhibition behavior. ATP was used to calculate IC50 values, as it allows the analysis of a dose response curve. The PK/LDH coupled assay is based on the conversion of phosphoenolpyruvate (PEP) and UDP/ADP to pyruvate and UTP/ATP by PK and the subsequent conversion of pyruvate to lactate by LDH. The latter step requires NADH, which is oxidized to NAD^+. NADH is fluorescent (excitation at 337 nm and emission at 460 nm), but not NAD^+. Thus, the measurement of fluorescent decrease at 460 nm is a measure of kinase activity. dCK experiments were performed in a buffer containing 50 mM HEPES, pH 7.5, 5 mM MgCl2, 1 mM DTT, and 100 mM KCl. Buffer was supplemented with PK (0.01 U/µl), LDH (0.02 U/µl), PEP (1 mM), NADH (300 µM) and compounds at varying concentrations. For UTP assays, protein concentration was 2 μM, substrate 200 µM (dC), and UTP 1 mM. For ATP assays, protein concentration was 100 nM (and 50 nM when indicated), substrate 100 µM (dC), and ATP 1 mM. All measurements were performed on a microplate reader Pherastar FS (BMG Labtech). All assays were performed in triplicate and each experiment was performed at least twice. The data are presented as mean ± SD. The results were plotted as kinetics and the velocity was determined for each condition as the slope of the linear range of the curve. For each compound concentration, the velocity of the reaction (according to V = d[P]/dt) was normalized with respect to the drug free control and velocity ratios were compared. IC50 values corresponding to enzymatic inhibition in ATP were calculated by nonlinear regression curves using GraphPad Prism software 9.4.0.

dCK-C3S-S74E [2] = test: Enzymatic assay (PK/LDH coupled), dC phosphorylation by dCK in the presence of ATP; format: biochemical, human; details: presence of ATP, read-out: ENZYMATIC ASSAY IC50
Protocol: as §1
Kinetic analyses were performed using a spectrophotometric continuous enzymatic-coupled assay using pyruvate kinase (PK) and lactate dehydrogenase (LDH). Analysis of the effect of compounds on dCK-C3S-S74E activity was performed using dC as substrate and UTP/ATP as phosphate donors. UTP is the physiological dCK-phosphate donor[46] and it was used to determine activation versus inhibition behavior. ATP was used to calculate IC50 values, as it allows the analysis of a dose response curve. The PK/LDH coupled assay is based on the conversion of phosphoenolpyruvate (PEP) and UDP/ADP to pyruvate and UTP/ATP by PK and the subsequent conversion of pyruvate to lactate by LDH. The latter step requires NADH, which is oxidized to NAD^+. NADH is fluorescent (excitation at 337 nm and emission at 460 nm), but not NAD^+. Thus, the measurement of fluorescent decrease at 460 nm is a measure of kinase activity. dCK experiments were performed in a buffer containing 50 mM HEPES, pH 7.5, 5 mM MgCl2, 1 mM DTT, and 100 mM KCl. Buffer was supplemented with PK (0.01 U/µl), LDH (0.02 U/µl), PEP (1 mM), NADH (300 µM) and compounds at varying concentrations. For UTP assays, protein concentration was 2 μM, substrate 200 µM (dC), and UTP 1 mM. For ATP assays, protein concentration was 100 nM (and 50 nM when indicated), substrate 100 µM (dC), and ATP 1 mM. All measurements were performed on a microplate reader Pherastar FS (BMG Labtech). All assays were performed in triplicate and each experiment was performed at least twice. The data are presented as mean ± SD. The results were plotted as kinetics and the velocity was determined for each condition as the slope of the linear range of the curve. For each compound concentration, the velocity of the reaction (according to V = d[P]/dt) was normalized with respect to the drug free control and velocity ratios were compared. IC50 values corresponding to enzymatic inhibition in ATP were calculated by nonlinear regression curves using GraphPad Prism software 9.4.0.

dCK-C3S-S74E [3] = test: Thermal shift assay (TSA); details: for THERMAL SHIFT ASSAY +Tm (°): mean ± SD; for ΔTm (º) (TSA): Figure 2a, mean
[4] = read-out: dCK CELLULAR ASSAY IC50 (nM), CCRF-CEM, 200 µM dT and 1 µM dC, read-out: dCK […] ASSAY IC50
[5] = Figure 2a, CCRF-CEM cell line, mean, read-out: IC50 (nM) (Cell Prolif)

| Compound | IC50 (CCRF-CEM cell line; [4]) | ENZYMATIC ASSAY (Activation/Inhibition) (dCK-C3S-S74E [1]) | IC50 (dCK-C3S-S74E [2]; [dCK] = 100 nM) | THERMAL SHIFT ASSAY +Tm (°) (dCK-C3S-S74E [3]) | IC50 (dCK-C3S-S74E [2]; [dCK] = 50 nM (footnote A)) | IC50 (CCRF-CEM cell line; [5]) | ΔTm (º) (TSA) (dCK-C3S-S74E [3]) |
| --- | --- | --- | --- | --- | --- | --- | --- |
| Cc1ccc(C#Cc2ccc(CN(C)C)cc2)cc1Nc1nc(-c2nccc(N)n2)cs1 [OR0237] | 3340 ± 1450 nM | A/I | 2.14 ± 0.387 µM | 15.3 ± 0.5 ° |  |  |  |
| Cc1ccc(-c2ccc(O)cc2)cc1Nc1nc(-c2nccc(N)n2)cs1 [OR0320] | 6770 ± 2810 nM | A/I | 1.76 ± 0.385 µM | 15.0 ± 0.2 ° |  |  |  |
| COc1cc(-c2ccc(C)c(Nc3nc(-c4nccc(N)n4)cs3)c2)ccc1O [OR0321] | 8290 ± 2710 nM | A/I | 2.27 ± 0.293 µM | 13.3 ± 0.2 ° |  |  |  |
| CCCN(c1nc(-c2nccc(N)n2)cs1)c1cc(-c2ccc(OCCN3CCN(C)CC3)cc2)ccc1C [OR0596] | 307 ± 50 nM | I | 0.286 ± 0.145 µM | 18.9 ± 0.1 ° |  |  |  |
| CCCN(c1nc(-c2nccc(N)n2)cs1)c1cc(-c2ccc(CCN3CCN(C)CC3)nc2)ccc1C [OR0599] | 136 ± 53 nM | I | 0.211 ± 0.052 µM | 17.1 ± 0.2 ° |  |  |  |
| CCCN(c1nc(-c2nc(N)cc(N)n2)cs1)c1cc(-c2ccc(CCCN3CCN(C)CC3)cc2)ccc1C [OR0601] | 420 ± 83 nM | I | 0.137 ± 0.003 µM | 20.8 ± 0.7 ° |  |  |  |
| Cc1ccc(-c2ccc(CCN3CCN(C)CC3)cc2)cc1N(CC(C)C)c1nc(-c2nc(N)cc(N)n2)cs1 [OR0603] | 255 ± 70 nM | I |  | 21.3 ± 0.8 ° | 0.149 ± 0.044 µM |  |  |
| Cc1ccc(-c2ccc(OCCN3CCN(C)CC3)nc2)cc1N(CC(C)C)c1nc(-c2nc(N)cc(N)n2)cs1 [OR0608] |  | I |  | 21.0 ± 0.5 ° | 0.106 ± 0.023 µM | 40 nM | 21.03 º |
| CCCN(c1nc(-c2nc(N)cc(N)n2)cs1)c1cc(-c2cnc(N)nc2)ccc1C [OR0613] |  | I |  | 14.5 ± 0.7 ° |  | 703 nM | 14.5 º |

Second part, the compound after the results:

| IC50 (CCRF-CEM cell line; [4]) | ENZYMATIC ASSAY (Activation/Inhibition) (dCK-C3S-S74E [1]) | IC50 (dCK-C3S-S74E [2]; [dCK] = 100 nM) | THERMAL SHIFT ASSAY +Tm (°) (dCK-C3S-S74E [3]) | IC50 (dCK-C3S-S74E [2]; [dCK] = 50 nM (footnote A)) | IC50 (CCRF-CEM cell line; [5]) | ΔTm (º) (TSA) (dCK-C3S-S74E [3]) | Compound |
| --- | --- | --- | --- | --- | --- | --- | --- |
| 1620 ± 254 nM | I | 2.14 ± 0.049 µM | 14.5 ± 0.2 ° |  |  |  | CCCN(c1nc(-c2nccc(N)n2)cs1)c1cc(NC(=O)c2ccc(CN3CCN(C)CC3)cc2)ccc1C [OR0105] |
| 14600 ± 1190 nM | A/I | 3.46 ± 0.349 µM | 14.8 ± 0.4 ° |  |  |  | Cc1ccc(NC(=O)c2ccc(CCN3CCN(C)CC3)cc2)cc1Nc1nc(-c2nccc(N)n2)cs1 [OR0146] |
| 2180 ± 388 nM | A/I | 2.04 ± 0.684 µM | 16.9 ± 0.4 ° |  |  |  | Cc1ccc(C#Cc2ccc(CN3CCN(C)CC3)cc2)cc1Nc1nc(-c2nccc(N)n2)cs1 [OR0153] |
| 13800 ± 394 nM | A/I | 7.78 ± 2.33 µM | 10.9 ± 0.4 ° |  |  |  | Cc1ccc(NC(=O)c2ccc(CN(C)C)cc2)cc1Nc1nc(-c2nccc(N)n2)cs1 [OR0155] |
| > 40000 nM | A/I | 6.38 ± 2.08 µM | 12.6 ± 0.1 ° |  |  |  | Cc1ccc(NC(=O)c2ccc(CN3CC4(CN(C)C4)C3)cc2)cc1Nc1nc(-c2nccc(N)n2)cs1 [OR0156] |
| 3460 ± 638 nM | A/I | 1.94 ± 0.529 µM | 15.2 ± 0.0 ° |  |  |  | Cc1ccc(OCc2ccc(CN3CCN(C)CC3)cc2)cc1Nc1nc(-c2nccc(N)n2)cs1 [OR0232] |
| 14800 ± 1580 nM | A/I | 3.35 ± 1.07 µM | 14.3 ± 0.4 ° |  |  |  | Cc1ccc(NC(=O)c2ccc(CN3CCN(C)CC3)cc2)cc1Nc1nc(-c2ncc(F)c(N)n2)cs1 [OR0239] |
| 14200 ± 1160 nM | A/I | 3.77 ± 2.19 µM | 13.5 ± 0.0 ° |  |  |  | Cc1ccc(NC(=O)c2ccc(CN3CCN(C)CC3)s2)cc1Nc1nc(-c2nccc(N)n2)cs1 [OR0241] |
| 3920 ± 461 nM | A/I | 3.4 ± 0.564 µM | 15.9 ± 0.5 ° |  |  |  | CN1CCN(Cc2ccc(C(=O)Nc3ccc4c(c3)N(c3nc(-c5nccc(N)n5)cs3)CCCC4)cc2)CC1 [OR0289] |
| 918 ± 107 nM | A/I | 0.401 ± 0.028 µM | 19.4 ± 0.4 ° |  |  |  | Cc1ccc(-c2ccc(CCCN3CCN(C)CC3)cc2)cc1Nc1nc(-c2nccc(N)n2)cs1 [OR0331] |
| 776 ± 206 nM | I | 0.301 ± 0.078 µM | 19.1 ± 0.2 ° |  |  |  | CCCN(c1nc(-c2nccc(N)n2)cs1)c1cc(-c2ccc(CCCN3CCN(C)CC3)cc2)ccc1C [OR0598] |
|  | A/I |  | 14.7 ± 0.5 ° | 0.498 ± 0.119 µM | 11800 nM | 14.67 º | Cc1ccc(-c2ccc(CCN3CCN(C)CC3)cc2)cc1N(CCCN)c1nc(-c2nc(N)cc(N)n2)cs1 [OR0611] |
